The text below walks through data of article PMC10222203 (Pharmaceutics, 2023).

What is called AUC(0-inf) is total exposure, with the tail of the curve extrapolated. A higher AUC(0-inf) goes with more exposure. For orientation: half-life means how long it takes for the measured level to halve.

Several values for one entry are separate records, joined by “and”; a condition that tells them apart may be missing. Identical values can stand only once. Like-named read-outs stand apart in the source and are kept apart here. Some results are limits rather than exact numbers.

For series [1], the system named is neurons differentiated from human neural stem cells. Conditions: for Total neuronal cell-to-unbound medium concentration ratio, Kp,u,cell,N: neurons, 500 nM, 5 h, 37 °C. Here is the method: (§1) Human neural stem cells (hNSCs) derived from human embryonic stem cells (hESCs) were differentiated to neurons or astrocytes. […] Cells were allowed to differentiate into desired lineage for three weeks before the addition of peptides. The peptides were individually added to 2 mL Neurobasal medium to a final concentration of 500 nM and incubated at 37 °C for 5 h. The medium was removed, and the cells were subsequently lysed using 300 µL of Pierce™ lysis buffer (ThermoFisher Scientific Cat. No. 87787) per well. Samples were kept at −20 °C pending analysis. The uptake of peptides was determined using the total cellular-to-unbound medium concentrations ratio, Kp,u,cell (mL/g total protein), according to Equation (11). (11) Kp,u,cell=Ccell/Cu,medium=Acell/Vcell/Cu,medium where Acell (nanomoles per g total protein) is the total amount of peptide in the cell lysate normalized by the total protein content and estimated volume of the cells. Total protein concentration (mg/mL) in the cell lysate was determined using a NanoDrop 2000C (ThermoFisher, Waltham, MA, USA) by measuring the absorbance at 280 nm. Vcell was estimated using the value of 6.5 µL/mg protein by analogy of HEK293 cells. […] The parameter Kp,u,cell (mL per g of total protein at 5 h) is a partition coefficient between the buffer and the cell culture, where the fraction in the buffer has no binding, but the measured concentration in the cells is a composite of both uptake into the cells and binding to both the cell surface and intra-cellular components. This parameter is thereby similar to Vu,brain as it also gives a description of both binding and uptake processes.
(§2) For estimation of the extent of transport across the cellular membrane, the unbound intracellular-to-extracellular ratio, Kp,uu,cell was calculated as described below:(12) Kp,uu,cell=Kp,u,cell×fu,cell

For series [2], the system named is astrocytes differentiated from human neural stem cells. Conditions: 500 nM, 5 h, 37 °C. Here is the method: as §1, §2
The conditions of series [3]: rat, Kp,uu,cell. Here is the method: (§3) The brain slice assay was performed according to previously published protocols. Three animals per study group were investigated. All glassware used in the brain slice experiments was silanized using dimethyldichlorosilane in heptane to avoid non-specific binding of the cyclic peptides to glass. In short, the silanization solution was added to the glassware and left there for one hour, after which the glassware was rinsed with methanol and then placed in a heating cabinet to cure. Slicing was performed with a Leica VT1200 microtome slicer (Leica Microsystems, Wetzlar, Germany). […] At the end of the incubation, two 200 µL samples of aECF were taken and mixed with blank brain homogenate (1:4, w:v) for assessment of unbound buffer concentration, Cbuffer (nanomoles per mL). Thereafter, the brain slices were individually sampled, carefully dried on filter paper, weighed, and homogenized in aECF (1:9, w:v) to determine the total amount of drug in the slice, Aslice (nanomoles per g brain). The density of brain tissue was assumed to be 1 g/mL. The key assumption of the assay is achievement of equilibrium during 5 h incubation, with Cbuffer being equal and representing unbound brain slice interstitial concentration. Samples of aECF (200 µL) were also taken from the scintillation vial without brain slices at the start and at the end of the incubation to determine the relative recovery and thermostability of the peptides. The unbound volume of distribution in brain, Vu,brain (mL/g brain), was calculated using Equation (3). (3) Vu,brain =Aslice−Vi×Cbuffer/Cbuffer(1−Vi) where Vi is the volume of buffer film that coats the slice and equals to 0.094 mL/g brain [39].
(§4) To study the potential mechanism of intracellular distribution of the peptides, several exploratory experiments were performed (Figure 2a). […] In addition, the role of endocytosis and pH partitioning-driven distribution was investigated. The slices were pre-incubated for 30 min with the blockers before the addition of the peptides. Dynasore was used as an inhibitor of dynamin-dependent endocytosis, which is involved in both clathrin and caveolin vesicle formation (Figure 3a). […] Due to high cytotoxicity, the concentration of […] was chosen based on previous studies.
(§5) The unbound intracellular-to-extracellular concentration ratio, Kp,uu,cell, was calculated according to Equation (14) by combining the brain slice derived, Vu,brain, with the measurement of brain tissue binding, fu,brain, from the tissue homogenate study. This allows elucidation of whether the uptake into the brain cells is driven mainly by passive processes and intracellular binding and/or partitioning, such as lysosomal trapping, or by active uptake into the cells. (14) Kp,uu,cell=fu,brain×Vu,brain

In another series the test system is brain slices. As for the experimental part:
as §3, §4, §5

A short description of the next series: in vivo. As to conditions: rat; for Half-life, t½ / half-life: 10 min intravenous infusion; for Half-life, t½ / AUC(0-inf) / Vd / clearance / half-life: 0.5 mg/kg; for AUC(0-inf) / Vd / clearance / half-life: iv; for half-life: t½. As for the experimental part: Since previous pharmacokinetic data were extremely sparse, a pilot study was performed in rats (n = 2), and simulations were performed in Berkeley Madonna (version 8.3.18 for Windows, Berkeley, CA, USA), defining suitable dose and sampling intervals from the parameters obtained in the pilot study. The surgical implantation of catheters made of polyethylene (PE50) in the femoral vein and artery for dosing of peptide and sampling of blood, respectively, was performed the day before experiments under isoflurane anaesthesia. The animals were then housed in a CMA120 system (CMA, Solna, Sweden) for freely moving animals with ad libitum access to food and water. […] All samples were added to heparinized low-binding Eppendorf tubes. The blood samples were centrifuged, and plasma was transferred to new Eppendorf tubes and immediately frozen at −20 °C. After bioanalysis, the area under the plasma concentration–time curve (AUC) was determined by the trapezoidal rule with extrapolation to time infinity followed by calculation of systemic clearance (CL), apparent volume of distribution (Vd), and half-life (t½).

Series [4] can be described thus: Simulation of unbound brain exposure (two-compartment model, Berkeley Madonna). The arrangement: species or system rat. As to conditions: parameter used in simulation; for clearance: read-out: Systemic clearance, CL (converted); for Vd: rat. As for the experimental part:
The simulation was performed at given initial total plasma concentration to be equal to steady-state concentrations obtained in the neuroPK study (Table 2), utilizing the parameters listed in Supplementary Material Table S3. A two-compartment model consisting of blood and brain compartments with a focus on unbound concentrations was characterized (Supplementary Material Figure S1 describes the structure of the model and the codes).

Setting [5] is: Unbound intracellular-to-extracellular (interstitial) concentration ratio, brain slices 37 °C, fu,brain × Vu,brain.
The mark [6] stands for this setting: rat brain slices, 200 nM, 5 h, 37 °C.
[7] abbreviates: rat weight 0.3 kg, read-out: Apparent volume of distribution, Vd.
[8] abbreviates: read-out: Apparent volume of distribution unbound, Vd,u.

For `CC(C)C[C@@H]1NC(=O)CNC(=O)[C@H](CC(N)=O)NC(=O)[C@H](CCCNC(=N)N)NC(=O)[C@H]([C@@H](C)O)NC(=O)[C@@H]2CSSC[C@@H]3NC(=O)[C@H]([C@@H](C)O)NC(=O)CNC(=O)CNC(=O)[C@H](C(C)C)NC(=O)[C@@H]4CSSC[C@H](NC(=O)[C@H]([C@@H](C)O)NC(=O)[C@H](CSSC[C@H](NC(=O)[C@H](C(C)C)NC(=O)[C@@H]5CCCN5C1=O)C(=O)NCC(=O)N[C@@H](CCC(=O)O)C(=O)N[C@@H]([C@@H](C)O)C(=O)N4)NC(=O)CNC(=O)[C@@H]1CCCN1C(=O)[C@H]([C@@H](C)O)NC(=O)[C@H](CC(N)=O)NC3=O)C(=O)N[C@@H](CO)C(=O)N[C@@H](Cc1c[nH]c3ccccc13)C(=O)N1CCC[C@H]1C(=O)N[C@@H](C(C)C)C(=O)N2` [Kalata B1], the “Relative reduction of Kp,uu,cell in cell culture versus tissue slice experiments” value in series [1] (neuron and astrocyte cultures vs brain slices) is reported as “ca. 3 fold”. Besides, the “Difference between Kp,u,cell (neurons, astrocytes) and Vu,brain (brain slice assay)” value in series [1] (neurons and astrocytes vs brain slices) is recorded as “less than 2 fold”. For the same compound, the “Total neuronal cell-to-unbound medium concentration ratio, Kp,u,cell,N” value in series [1] is listed as 135.35 ± 21.2 mL/g total protein. Besides, the “Total astrocyte cell-to-unbound medium concentration ratio, Kp,u,cell,A” value in series [2] was 94.73 ± 3.08 mL/g total protein; in series [2] (listed as kalata B1), 94.7 mL/g total protein. Moreover, the Kp uu in series [3] (brain slices incubated at 4 °C) is 0.0721; in series [3] (setting [5]), 9.7. The “Reduction in Kp,uu,cell from 37 °C to 4 °C” value with brain slices (brain slices) is given as 138 fold. Further, the “Intra-brain distribution (Vu,brain) relative to SFTI-1” value in the series on brain slices (brain slices 37 °C) is listed as “ca. 350 fold”. Besides, in the series with brain slices (brain slices 37 °C, fu,brain × Vu,brain), the “Unbound intracellular-to-extracellular (interstitial) concentration ratio, Kp,uu,cell” value is given as 9.73 ± 3.35. The “Unbound volume of distribution in brain, Vu,brain” value (from here on “Unbound volume of distribution”) with brain slices (brain slices incubated at 4 °C) is listed as 1.12 mL/g brain; with brain slices (setting [6]) it was 152 ± 29.9 mL/g brain; with brain slices (rat brain slices, 200 nM, 5 h, 37 °C, listed as kalata B1), 152 mL/g brain. Besides, the “Reduction in Vu,brain after pre-incubation with dynasore” value with brain slices (brain slices, dynasore 50 µM, 30 min pre-incubation) turned out to be 23%. In addition, the “Half-life, t½” value in the series “in vivo” (plasma) worked out at 35.8 ± 3.52 min. Also, the AUC(0-inf) in “in vivo” (in vivo) was 2800 ng·h/mL. The Vd in the series “in vivo” (in vivo) is 0.322 ± 0.0887 L/kg; in series [4] (setting [7]), 0.0966 L; in series [4] (setting [8]), 0.029 L. Also, the clearance in “in vivo” (in vivo) was 1.6 ± 0.396 mL/min/kg; in series [4] (rat weight 0.3 kg), 0.48 mL/min. For the same compound, in the series “in vivo” (in vivo, plasma), the half-life was found to be 35 min.

Regarding `CC[C@H](C)[C@@H]1NC(=O)[C@@H]2CCCN2C(=O)[C@@H]2CCCN2C(=O)[C@H]([C@@H](C)CC)NC(=O)[C@H](CO)NC(=O)[C@H](CCCCN)NC(=O)[C@H]([C@@H](C)O)NC(=O)[C@@H]2CSSC[C@H](NC1=O)C(=O)N[C@@H](Cc1ccccc1)C(=O)N1CCC[C@H]1C(=O)N[C@@H](CC(=O)O)C(=O)NCC(=O)N[C@@H](CCCNC(=N)N)C(=O)N2` [SFTI-1, sunflower trypsin inhibitor-1], the “Kp,u,cell fold lower than for kalata B1” value in series [1] (neurons and astrocytes) is “up to 5 fold”. Besides, the “Total neuronal cell-to-unbound medium concentration ratio, Kp,u,cell,N” value in series [1] is reported as 31.11 ± 12.46 mL/g total protein. In addition, the “Total astrocyte cell-to-unbound medium concentration ratio, Kp,u,cell,A” value in series [2] was 19.0 mL/g total protein and 19.02 ± 4.34 mL/g total protein. The compound further gave a Kp uu in series [3] (mean values across experimental conditions, brain slices, 4 °C, inhibition of endocytosis, or dissipation of the pH gradient) of 0.3 to 0.47. The Kp uu in series [3] (setting [5]) amounted to 0.415 ± 0.079. Further, in the series with brain slices (brain slices incubated at 4 °C), the “Unbound volume of distribution” value was determined as 0.56 mL/g brain. Besides, the “Unbound volume of distribution” value in the series on brain slices (setting [6]) was 0.436 mL/g brain and 0.436 ± 0.064 mL/g brain. In “in vivo” (10 min infusion 0.5 mg/kg), the “Total plasma concentration post 120 min time point (below the quantification limit)” value is reported as below 5 ng/mL. Further, in “in vivo” (plasma), the “Half-life, t½” value came to 20.3 ± 3.50 min; the AUC(0-inf) is 1290 ng·h/mL; the Vd amounted to 0.191 ± 0.0344 L/kg; the clearance was 1.82 ± 0.48 mL/min/kg. For the same compound, in the series “in vivo” (plasma), the half-life worked out at 20 min. Besides, in series [4], the CLin is 0.0017 L/h; the CLout is given as 0.01317 L/h; the “Systemic clearance unbound, CLu” value is listed as 0.0307 L/h; the “Total steady-state plasma concentration, Cplasma,ss” value is given as 0.6052 mg/L. For the same compound, the “Unbound steady-state plasma concentration, Cplasma,u,ss” value in series [4] was 0.5665 mg/L. Besides, the clearance in series [4] (rat weight 0.3 kg) was 0.545 mL/min. Further, the Vd in series [4] (setting [7]) is 0.0573 L. In addition, the Vd in series [4] (setting [8]) was 0.054 L.
